Laboratory results: patent US5891869A, “Basic oxazoline-amide derivatives of GE2270 and GE2270-like antibiotics” (Biosearch Italia, S.p.A., priority 1995, dated 1999)

Assays:
[1] = tested on: Haemoph. influenzae ATCC 19418 L970; test: MIC by microbroth dilution; assay type: cell-based, Haemophilus influenzae; details: 0,01% BSA, 10^4 CFU/ml, 48 h, 5% CO2, brain heart infusion broth+1% Supplement C
Description: (§1) The minimal inhibitory concentration (MIC) has been determined by microbroth dilution methodology, in the presence of 0,01% (w/v) of bovine serum albumin (BSA). BSA is added to the diluent to avoid possible adherence of the compounds of the invention to the plastic surface of the microtiter wells, as disclosed also by B. Goldstein et al., Antimicrobial Agents and Chemotherapy, 37 (1993), 741-745.
(§2) Inocula were 10^4 CFU/ml, except for Propionibacterium acnes and Bacteroides fragilis (10^5 CFU/ml) MICs were read after 18-24 h, except for Haemophilus influenzae, P. acnes, B. fragilis (48 h).
(§3) All microorganisms were incubated at 37° C.; H. influenzae in a 5% CO2 atmosphere, anaerobes in a N2 --CO2 --H2 (80:10:10) mixture; other organisms in air.
(§4) The growth media are: Oxoid Iso-Sensitest broth for staphylococci and Enterococcus faecalis); Difco Todd Hewitt broth for streptococci; Difco brain heart infusion broth+1% Difco Supplement C. for H. influenzae; Difco Wilkins-Chalgren broth for anaerobes.

Strept. pneumoniae L44 = test: MIC by microbroth dilution; assay type: cell-based, Streptococcus pneumoniae; details: 0,01% BSA, 10^4 CFU/ml, 18-24 h, Todd Hewitt broth
Description: as §1, §2, §3, §4

[2] = tested on: Bacteroides fragilis ATCC 25285 L1011; test: MIC by microbroth dilution; assay type: cell-based; details: 0,01% BSA, 10^5 CFU/ml, 48 h, anaerobic, Wilkins-Chalgren broth
Description: as §1, §2, §3, §4

[3] = tested on: Staphylococcus aureus L165; test: MIC by microbroth dilution; assay type: cell-based; details: 0,01% BSA, inoculum 10^4 CFU/ml, read after 18-24 h, Iso-Sensitest broth
Description: as §1, §2, §3, §4

[4] = tested on: Enterococcus faecalis ATCC 7080 L149; test: MIC by microbroth dilution; assay type: cell-based; details: Enterococc. faecalis ATCC 7080 L149; 0,01% BSA; 10^4 CFU/ml; 18-24 h; Iso-Sensitest broth
Description: as §1, §2, §3, §4

[5] = tested on: Streptococcus pyogenes L49; test: MIC by microbroth dilution; assay type: cell-based; details: 0,01% BSA, 10^4 CFU/ml, 18-24 h, Todd Hewitt broth
Description: as §1, §2, §3, §4

Staph. haemolyticus L602 = test: MIC by microbroth dilution; assay type: cell-based, Staphylococcus haemolyticus; details: 0,01% BSA, 10^4 CFU/ml, 18-24 h, Iso-Sensitest broth
Description: as §1, §2, §3, §4

[6] = tested on: Staph. epidermidis ATCC 12228 L147; test: MIC by microbroth dilution; assay type: cell-based, Staphylococcus epidermidis; details: 0,01% BSA, 10^4 CFU/ml, 18-24 h, Iso-Sensitest broth
Description: as §1, §2, §3, §4

[7] = tested on: Propionibact. acnes ATCC 6919 L1014; test: MIC by microbroth dilution; assay type: cell-based, Propionibacterium acnes; details: 0,01% BSA, 10^5 CFU/ml, 48 h, anaerobic, Wilkins-Chalgren broth
Description: as §1, §2, §3, §4

Strept. agalactiae L310 = test: MIC by microbroth dilution; assay type: cell-based, Streptococcus agalactiae; details: 0,01% BSA, 10^4 CFU/ml, 18-24 h, Todd Hewitt broth
Description: as §1, §2, §3, §4

Strept. sanguis L1721 = test: MIC by microbroth dilution; assay type: cell-based, Streptococcus sanguis; details: 0,01% BSA, 10^4 CFU/ml, 18-24 h, Todd Hewitt broth
Description: as §1, §2, §3, §4

gram positive bacteria = details: from K. Shimanaka et al.; cited from earlier work

SMILES | MIC of the compounds [1] [mg/L] | MIC of the compounds (Strept. pneumoniae L44) [mg/L] | MIC of the compounds [2] [mg/L] | MIC of the compounds [3] [mg/L] | MIC of the compounds [4] [mg/L] | MIC of the compounds [5] [mg/L] | MIC of the compounds [6] [mg/L] | MIC of the compounds [7] [mg/L] | MIC of the compounds (Strept. agalactiae L310) [mg/L] | MIC of the compounds (Strept. sanguis L1721) [mg/L] | MIC of the compounds (Staph. haemolyticus L602) [mg/L] | antimicrobial activity (gram positive bacteria)
CNC(=O)CC1NC(=O)c2csc(n2)-c2ccc(-c3nc(C4=NC(C(=O)NC5CNC(C(N)=O)C5)CO4)cs3)nc2-c2csc(n2)-c2csc(n2)C(C(O)c2ccccc2)NC(=O)CNC(=O)c2nc(sc2COC)C(C(C)C)NC(=O)c2nc1sc2C.O=C(O)C(F)(F)F (mixture of isomers) [Compound 13] | 128 | 0.5 | > 128 | 0.13 | 0.06 | 4 | 0.5 | 0.13 | – | – | 0.5 | –
CNC(=O)CC1NC(=O)c2csc(n2)-c2ccc(-c3nc(C4=NC(C(=O)N(C)CCN(C)C)CO4)cs3)nc2-c2csc(n2)-c2csc(n2)C(C(O)c2ccccc2)NC(=O)CNC(=O)c2nc(sc2COC)C(C(C)C)NC(=O)c2nc1sc2C (stereo not shown) [Compound 4s] | 64 | 0.25 | 8 | 0.06 | 0.016 | 1 | 0.06 | 0.03 | 0.5 | 0.13 | 0.06 | –
CNC(=O)CC1NC(=O)c2csc(n2)-c2ccc(-c3nc(C4=NC(C(=O)N5CCC(N(C)C)CC5)CO4)cs3)nc2-c2csc(n2)-c2csc(n2)C(C(O)c2ccccc2)NC(=O)CNC(=O)c2nc(sc2COC)C(C(C)C)NC(=O)c2nc1sc2C (stereo not shown) [Compound 10s] | 8 | 0.5 | 8 | 0.03 | 0.03 | 1 | 0.06 | 0.016 | 2 | 0.5 | 0.13 | –
CNC(=O)CC1NC(=O)c2csc(n2)-c2ccc(-c3nc(C4=NC(C(=O)N5CCCC5C(N)=O)CO4)cs3)nc2-c2csc(n2)-c2csc(n2)C(C(C)C)NC(=O)CNC(=O)c2csc(n2)C(C(C)C)NC(=O)c2nc1sc2C (stereo not shown) [amythiamicin factor A] | – | – | – | – | – | – | – | – | – | – | – | shows antimicrobial activity against gram positive bacteria

Continued, in another order:

MIC of the compounds [1] [mg/L] | MIC of the compounds (Strept. pneumoniae L44) [mg/L] | MIC of the compounds [2] [mg/L] | MIC of the compounds [3] [mg/L] | MIC of the compounds [4] [mg/L] | MIC of the compounds [5] [mg/L] | MIC of the compounds [6] [mg/L] | MIC of the compounds [7] [mg/L] | MIC of the compounds (Strept. agalactiae L310) [mg/L] | MIC of the compounds (Strept. sanguis L1721) [mg/L] | SMILES | MIC of the compounds (Staph. haemolyticus L602) [mg/L] | antimicrobial activity (gram positive bacteria)
16 | 0.13 | 4 | 0.06 | 0.016 | 1 | 0.13 | 0.016 | 2 | 0.13 | CNC(=O)CC1NC(=O)c2csc(n2)-c2ccc(-c3nc(C4=NC(C(=O)N(C)CCN5CCN(CCO)CC5)CO4)cs3)nc2-c2csc(n2)-c2csc(n2)C(C(O)c2ccccc2)NC(=O)CNC(=O)c2nc(sc2COC)C(C(C)C)NC(=O)c2nc1sc2C (mixture of isomers) [Compound 19] | 0.13 | –
8 | 0.13 | 8 | 0.06 | 0.016 | 1 | 0.06 | 0.016 | – | – | CNC(=O)CC1NC(=O)c2csc(n2)-c2ccc(-c3nc(C4=NC(C(=O)N(C)CCN5CCN(CCO)CC5)CO4)cs3)nc2-c2csc(n2)-c2csc(n2)C(C(O)c2ccccc2)NC(=O)CNC(=O)c2nc(sc2COC)C(C(C)C)NC(=O)c2nc1sc2C (stereo not shown) [Compound 19s] | 0.13 | –
